Test results taken from PMC6672008, “Small molecule degraders of the hepatitis C virus protease reduce susceptibility to resistance mutations” (Nature Communications, 2019).
“And” between values parts separate entries of the source, which are not always exact repeats. Equal values may be shown once. “Also recorded” adds a separate entry of the source. Read-outs that look alike come from different tables or passages of the source.

Experiments:
[1] = biological target: HCV NS3-eGFP protein fusion (Hepatitis C virus genotype 2a, UniProt Q99IB8); format: cell-based; settings: 4 h; for degradation of HCV NS3 in the transient assay (in words): increasing concentrations
HCV NS3 = HCV NS3 (Hepatitis C virus genotype 2a, UniProt Q99IB8); format: cell-based; settings: 1000 nM, 4 h
DDB1∆B-CRBN = DDB1∆B-CRBN (Homo sapiens, UniProt Q96SW2); test: CRBN-binding assay (fluorescence polarization, displacement of Atto565-lenalidomide); settings: fluorescence polarization competition
Protocol: Measurement of compounds binding to CRBN was performed by fluorescence polarization. […] Compounds were dispensed using a D300e Digital Dispenser (HP), normalized to 1% DMSO, and incubated for 60 min at room temperature. The change in fluorescence polarization was monitored using a PHERAstar FS microplate reader (BMG Labtech) for 20 min in 200 s cycles. […]
Increasing concentrations of compounds were titrated to preformed DDB1∆B-CRBN-lenalidomideAtto565 complex. Data are presented as means normalized to DMSO ± standard deviation of n = 4 technical replicates. […]
d Measurement of NS3/4A protease inhibition in vitro. Cell lysates containing the endogenous NS3/4A protease were prepared from cells stably expressing an HCV […]
subgenomic replicon. […]

[2] = Cytotoxicity assay (CellTiter-Glo, 24 h); format: cell-based; settings: human, CC50 (50% loss of viability)
HCV-JFH1-ad = test: microbe, parasite or virus in culture; format: cell-based, hepatitis C virus
wildtype HCV-Jc1 = test: microbe, parasite or virus in culture; format: cell-based, hepatitis C virus
HCV-NS3-V55A = test: microbe, parasite or virus in culture; format: cell-based, hepatitis C virus
HCV-NS3-A156S = test: microbe, parasite or virus in culture; format: cell-based, hepatitis C virus
Huh7.5-SGR cells = test: Cytotoxicity assay (CellTiter-Glo, 24 h); format: cell-based; settings: read-out: CC50 (50% loss of viability), single experiments, individual experiments
[3] = 1000 nM compound + 5000 nM lenalidomide, Fig. 2d
[4] = 1000 nM compound + DMSO, Fig. 2d
[5] = average value reported, averaged from n = 2
[6] = single experiments, individual experiments
[7] = 500 nM compound + 500 nM lenalidomide, Supplementary Fig. 4c
[8] = 500 nM compound + 5000 nM lenalidomide, Supplementary Fig. 4c
[9] = 500 nM compound + DMSO, Supplementary Fig. 4c

## CCC[C@H](NC(=O)[C@@H]1[C@H]2CCC[C@H]2CN1C(=O)[C@@H](NC(=O)[C@@H](NC(=O)c1cnc(C(=O)NCCOCCOCCOc2cc3c4c(cccc4c2)C(=O)N(C2CCC(=O)N(C)C2=O)C3=O)cn1)C1CCCCC1)C(C)(C)C)C(=O)C(=O)NC1CC1 (some centres unmarked) [DGY-08-097-BUMP]
[1]; [3]
  NS3-eGFP/mCherry ratio normalized to DMSO, average: 0.96
  NS3-eGFP/mCherry ratio normalized to DMSO, single experiments: 0.92 and 1.00
[1]; [4]
  NS3-eGFP/mCherry ratio normalized to DMSO, average: 0.92
  NS3-eGFP/mCherry ratio normalized to DMSO, single experiments: 0.92
[1]
  degradation of HCV NS3 in the transient assay (in words): neither compound induced degradation of HCV NS3
HCV NS3
  change of HCV NS3 abundance vs DMSO (in words): No significant degradation of HCV NS3 or any other cellular protein; also recorded: unaffected
DDB1∆B-CRBN
  binding to CRBN (in words): Neither DGY-04-035-BUMP nor DGY-08-097-BUMP exhibit detectable binding to CRBN; also recorded: loss of CRBN-binding
[2]; [5]
  CC50 at 24 h: > 40 µM
[2]; [6]
  CC50 at 24 h: > 40 µM

## CCC[C@H](NC(=O)[C@@H]1[C@H]2CCC[C@H]2CN1C(=O)[C@@H](NC(=O)[C@@H](NC(=O)c1cnc(C(=O)NCCOCCOCCNc2cccc3c2C(=O)N(C2CCC(=O)N(C)C2=O)C3=O)cn1)C1CCCCC1)C(C)(C)C)C(=O)C(=O)NC1CC1 (some centres unmarked) [DGY-04-035-BUMP]
[1]; [7]
  NS3-eGFP/mCherry ratio normalized to DMSO, average: 0.98
  NS3-eGFP/mCherry ratio normalized to DMSO, single experiments: 0.98 and 0.99
[1]; [8]
  NS3-eGFP/mCherry ratio normalized to DMSO, average: 0.98
  NS3-eGFP/mCherry ratio normalized to DMSO, single experiments: 1.00 and 0.97
[1]; [9]
  NS3-eGFP/mCherry ratio normalized to DMSO, average: 0.98
  NS3-eGFP/mCherry ratio normalized to DMSO, single experiments: 0.98 and 0.99
[1]
  degradation of HCV NS3 in the transient assay (in words): neither compound induced degradation of HCV NS3
DDB1∆B-CRBN
  binding to CRBN (in words): Neither DGY-04-035-BUMP nor DGY-08-097-BUMP exhibit detectable binding to CRBN; also recorded: loss of CRBN-binding
[2]; [5]
  CC50 at 24 h: > 40 µM
[2]; [6]
  CC50 at 24 h: > 40 µM

## CCC[C@H](NC(=O)[C@@H]1[C@H]2CCC[C@H]2CN1C(=O)[C@@H](NC(=O)[C@@H](NC(=O)c1cnccn1)C1CCCCC1)C(C)(C)C)C(=O)C(=O)NC1CC1 [telaprevir, reference compound]
HCV-JFH1-ad; Hepatitis C virus, Huh7.5, read-out: antiviral IC50 (50% reduction in viral titers), average value reported, Huh7.5, MOI 0.1, treated 24 to 48 h post-infection, average of n ≥ 2 experiments
  IC50: 0.132 µM
HCV-JFH1-ad; read-out: antiviral IC50 (50% reduction in viral titers), single experiments, Huh7.5, MOI 0.1, treated 24 to 48 h post-infection, individual experiments
  IC50: 0.114 µM and 0.091 µM and 0.086 µM and 0.236 µM
Wildtype HCV-Jc1; Hepatitis C virus, Huh7.5, read-out: antiviral IC50, wildtype virus, average value reported, Huh7.5, MOI 0.1, treated 24 to 48 h post-infection
  IC50: 0.098 µM
Wildtype HCV-Jc1; Hepatitis C virus, Huh7.5, read-out: antiviral IC50, wildtype virus, single experiments, Huh7.5, MOI 0.1, treated 24 to 48 h post-infection
  IC50: 0.11 µM
Wildtype HCV-Jc1; read-out: antiviral IC50, wildtype virus, single experiments, Huh7.5, MOI 0.1, treated 24 to 48 h post-infection
  IC50: 0.072 µM and 0.111 µM
HCV-NS3-V55A; Hepatitis C virus, Huh7.5, read-out: antiviral IC50, NS3-V55A virus, average value reported, Huh7.5, MOI 0.1, treated 24 to 48 h post-infection
  IC50: 0.288 µM
HCV-NS3-V55A; Hepatitis C virus, Huh7.5, read-out: antiviral IC50, NS3-V55A virus, single experiments, Huh7.5, MOI 0.1, treated 24 to 48 h post-infection
  IC50: 0.19 µM
HCV-NS3-V55A; ratio of IC50 values
  change in antiviral potency, NS3-V55A vs wildtype: 3 fold
HCV-NS3-V55A; read-out: antiviral IC50, NS3-V55A virus, single experiments, Huh7.5, MOI 0.1, treated 24 to 48 h post-infection
  IC50: 0.304 µM and 0.372 µM
HCV-NS3-A156S; Hepatitis C virus, Huh7.5, read-out: antiviral IC50, NS3-A156S virus, average value reported, Huh7.5, MOI 0.1, treated 24 to 48 h post-infection
  IC50: 0.949 µM
HCV-NS3-A156S; Hepatitis C virus, Huh7.5, read-out: antiviral IC50, NS3-A156S virus, single experiments, Huh7.5, MOI 0.1, treated 24 to 48 h post-infection
  IC50: 0.756 µM
HCV-NS3-A156S; ratio of IC50 values
  change in antiviral potency, NS3-A156S vs wildtype: 10 fold
HCV-NS3-A156S; read-out: antiviral IC50, NS3-A156S virus, single experiments, Huh7.5, MOI 0.1, treated 24 to 48 h post-infection
  IC50: 1.14 µM
[2]; [5]
  CC50 at 24 h: 28 µM
[2]; [6]
  CC50 at 24 h: 32 µM
Huh7.5-SGR cells
  CC50: > 40 µM and 24 µM
